“Also recorded” adds a separate entry of the source.
Columns and labels:
[1] = system: males and females with IBS-c; test: Phase 2a randomized, double-blind, placebo-controlled clinical trial: weekly symptom-based assessments (OSGA, abdominal discomfort/pain, constipation, satisfaction with bowel habit); assay type: in vivo, human
Description: The Clinical Trial reported herein was a Phase 2a, Randomized, Double-Blind, Placebo-Controlled Study. In the Study, 91 males and females with IBS-c were administered doses of DDP733 (0.2, 0.5, 0.8 and 1.4 mg) and placebo, three times a day for 28 days (4 weeks). Study Details: • Phase 2a, randomized, double-blinded, placebo controlled parallel group design • 91 males and females with IBS-c • 7 week study with 4 weeks of treatment • Five treatment groups: • DDP733: 0.2 mg, 0.5 mg, 0.8 mg or 1.4 mg three times a day (approximately 30 to 60 minutes before breakfast, lunch and dinner) • PLACEBO: Three times a day (approximately 30 to 60 minutes before breakfast, lunch and dinner). • Assess effect on relief of IBS-c using symptom-based assessment including the following weekly questions: Overall response (OSGA); Abdominal discomfort/pain; Constipation; and Satisfaction with bowel habit. • Assess effect on pharmacodynamic measure (gastrointestinal transit) at baseline and week 4 using radio-opaque markers. • Establish safety profile. Key Subject Inclusion Criteria: • 1. Male or female from 18 to 65 years of age, inclusive • 2. IBS-c for at least three months prior to randomization as defined by the subject's response to the criteria below adapted from the Rome II • Modular Questionnaire: • a. Subject experiences discomfort or pain in the abdomen during at least 3 weeks (at least one day in each week) in the last 3 months. • b. Subject experiences one or more of the following: • i. Discomfort or pain that gets better or stops after a bowel movement • ii. Change in the usual number of bowel movements (either more or fewer) when the discomfort or pain starts • iii. Softer or harder stools than usual when the discomfort or pain starts • c. Patient experiences two or more of the following at least one-fourth (¼) of the occasions or days in the last three months: • i. Fewer than three bowel movements per week (0-2) • ii. Hard or lumpy stools • iii. Straining during a bowel movement • d. Patient experiences none of the following more than one-fourth (¼) of the occasions or days in the last three months: • i. More than three bowel movements a day (4 or more) • ii. Loose, mushy or watery stools • iii. Having to rush to the toilet to have a bowel movement • 3. Completion of at least six days of daily diary assessments in the week of screening prior to Visit 3 with a documented average stool consistency score of ≦2.5. Stool consistency was rated as 1=very hard, 2=hard, 3=formed, 4=loose, 5=watery. Clinical Symptoms were assessed using the following weekly questions: [table] […] Subjects were defined as Overall SGA responders, prior to the study, if: • 1. Somewhat relieved or better at 100% of SGAs (Response 3 at all weekly time points), or considerably/completely relieved for at least 50% of SGAs (Response 1 or 2 for at least 2 of the 4 weekly timepoints) or considerably/completely relieved at Week 4 (Response 1 or 2 at Week AND • 2. No more than 5 days of laxative use excluding bulk-forming laxatives over the 4-week treatment period.

[2] = system: males and females with IBS-c; test: Phase 2a clinical trial: safety measurements (vital signs, adverse events, clinical laboratory testing, ECGs); assay type: in vivo, human; details: 0.2, 0.5, 0.8 or 1.4 mg three times a day for 28 days
Description: The Clinical Trial reported herein was a Phase 2a, Randomized, Double-Blind, Placebo-Controlled Study. In the Study, 91 males and females with IBS-c were administered doses of DDP733 (0.2, 0.5, 0.8 and 1.4 mg) and placebo, three times a day for 28 days (4 weeks). Study Details: • Phase 2a, randomized, double-blinded, placebo controlled parallel group design • 91 males and females with IBS-c • 7 week study with 4 weeks of treatment • Five treatment groups: • DDP733: 0.2 mg, 0.5 mg, 0.8 mg or 1.4 mg three times a day (approximately 30 to 60 minutes before breakfast, lunch and dinner) • PLACEBO: Three times a day (approximately 30 to 60 minutes before breakfast, lunch and dinner). Safety measurements included monitoring of vital signs and adverse events, clinical laboratory testing and performance of electrocardiograms (ECGs).

[3] = overall responders within the 1.4 mg, 3 times a day treatment group

O=C(N[C@H]1CN2CCC1CC2)c1c[nH]c2ccsc2c1=O [DDP733, (R)—N-1-azabicyclo[2.2.2]oct-3-yl-4,7-dihydro-7-oxothieno[3,2-b]pyridine-6-carboxamide]
subjects reporting overall symptom relief (Overall SGA responders, OSGA) ([1]; 1.4 mg three times a day (4.2 mg/day), oral, 4-week treatment, IBS-c subjects, placebo about 15%): 54%
statistical significance on clinical endpoint overall symptom relief (OSGA) ([1]; 1.4 mg three times a day (4.2 mg/day), Pearson chi squared test): Statistical significance (using the Pearson chi squared test) was achieved
OSGA clinical response at one week post-treatment ([1]; 1.4 mg three times a day, one week post-treatment (FIG. 2)): lost (i.e., returned to the level of placebo); also recorded: loss of response (return to level of placebo response)
other weekly subject global assessments (abdominal discomfort/pain, constipation, satisfaction with bowel habit) ([1]; 4.2 mg/day dose, Questionnaires 2, 3 and 4): consistent pattern of improvement
diarrhea reported by responders during the treatment period ([1]; 4.2 mg/day group, responders): no responders reported any diarrhea
laxative use among responders showing overall symptom relief ([1]; 4.2 mg/day group, responders, treatment period): relief was achieved in all responders without the use of laxatives
constipation and satisfaction with bowel habit [1, 3]: also improved on treatment
weekly pain response (Variable 2, abdominal discomfort/pain) [1, 3]: a decrease in weekly pain response was observed
drug related adverse events (nausea, pruritis and rash) [2]: mainly mild-moderate, transient in nature and required no intervention
lab or ECG abnormalities [2]: no pattern of lab or ECG abnormalities

— patent US20080269276A1, “COMPOSITIONS USEFUL FOR TREATING IRRITABLE BOWEL SYNDROME” (Dynogen Pharmaceuticals, Inc., priority 2007, published 2008)
